Values after ≈ are worked out from the molar mass of the structure shown. Like-named read-outs stand apart in the source and are kept apart here.
Tests used:
M. catarrhalis ATCC23246 = test: Antibacterial screen, broth microdilution; type: cell-based, Moraxella catarrhalis; settings: Moraxella catarrhalis, ATCC23246; broth microdilution
Method: Antibacterial activity of compounds was determined by a standard broth microdilution method (Clinical Laboratory Standard Institute CLSI, [2009]), except that for Streptococcus strains lysed blood was substituted with 5% horse serum in the testing medium. […] The activities are expressed as minimum inhibitory concentrations (MICs) in units of μg·ml^−1. […] The organisms tested represented macrolide sensitive Gram‐positive pathogens that are mainly targeted by macrolide antibiotics. Tested streptococci were clinical isolates Streptococcus pneumoniae SP030 and Streptococcus pyogenes 3565 from internal strain collection, and other strains were obtained from ATCC bioresource centre, Staphylococcus aureus ATCC13709, Haemophilus influenzae ATCC49247, and Moraxella catarrhalis ATCC23246. Double dilutions of tested compounds were prepared using TECAN Genesis 150. Bacteria were grown on appropriate agar plates (Becton Dickinson, USA)—Columbia agar with 5% sheep blood for streptococci and M. catarrhalis, Mueller‐Hinton chocolate agar for H. influenzae , and Mueller‐Hinton agar for staphylococci.

[1] = Pharmacokinetic studies in CD-1 mice; settings: for B/P (ratio of AUC0−t in whole blood and plasma): after oral administration; for DNAUCPO (AUC0−t divided by the dose) / Cmax: blood; for DNAUCPO (AUC0−t divided by the dose): oral gavage 12.5 mg·kg^−1; for half-life / Vd / clearance / bioavailability / AUC(0-t) / Cmax: Swiss albino CD-1, mouse; for Vd / clearance: iv; for AUC(0-t): AUC0-t; for AUC(0-t) / Cmax: oral gavage 12.5 mg/kg; for Cmax: C max
Method: For pharmacokinetic (PK) studies in mice, animals were dosed either by intravenous (i.v.) or oral (p.o.) route. For i.v. administration, the dosing volume was 10 ml·kg^−1 for a total dose of 12.5 mg·kg^−1, and for p.o. administration, the dosing volume was 20 ml·kg^−1 for a total dose of 12.5 mg·kg^−1. Dosing solutions were prepared in 100% saline ([…]) both for i.v. and p.o. administration for all compounds with the exception of compound 4 for which dosing solutions were prepared in PBS with 5% Cremophor‐EL (Fluka). Following i.v. dosing, blood samples were collected at 5 and 15 min, 1, 3, 6, 8, 24, and 48 h post‐dose. Following oral dosing, blood samples were collected at 15 and 30 min, 1, 2, 4, 6, 8, 24, and 48 h post‐dose.
(§1) For studies performed in Swiss albino CD‐1 mice (Harlan Laboratories, Spain), in order to obtain simultaneous blood and plasma profiles and blood‐to‐plasma (B/P) ratio, PK was performed using terminal sampling of N = 3 animals per time point and data evaluated using composite analysis. For studies performed in P. falciparum infected and non‐infected NODscidβ2m^−/− mice (Charles River Laboratories, France), only whole blood was obtained by serial sampling of N = 3 animals using tail puncture.
(§2) For analysis of whole blood samples, 25 μl of fresh blood were mixed with 25 μl of saponin solution (0.1% in water) and immediately frozen on dry ice. Plasma was obtained by centrifugation of fresh blood at 2,500 g for 10 min. Both blood and plasma samples were stored frozen at −80°C until analysis.
(§3) Diluted blood and plasma samples were processed under standard liquid–liquid extraction procedures using acetonitrile containing internal standard (clarithromycin, 100 ng·ml^−1) and analysed by LC–MS/MS in positive ion mode with electrospray. Samples were assayed for parent compound using a Sciex API 4000 and Sciex API‐2000 Triple Quadrupole Mass Spectrometer (Sciex, Division of MDS Inc., Toronto, Canada), against a series of matrix matched calibration curve standards, using multiple reaction monitoring (MRM) at the specific transitions for each compound. Non‐compartmental analysis was performed using WinNonlin, version 4.1 (Pharsight, Mountain View, CA), and the main pharmacokinetic parameters were estimated.

[2] = tested on: Plasmodium falciparum T9/94 (CQ); test: [3H]hypoxanthine incorporation antimalarial assay, strain T9/94; type: cell-based; settings: 72 h, read-out: IC50 T9/94 (CQ)
Method: (§4) The activity of the test compounds against P. falciparum in vitro was determined using the tritiated hypoxanthine incorporation assay of Desjardins et al. and additionally modified by Milhous and Chulay (Chulay, Haynes, & Diggs, [1983]; Milhous, Weatherly, Bowdre, & Desjardins, [1985]).
(§5) Compounds were dissolved in DMSO and subsequently diluted in the culture medium (RPMI 1640) supplemented with 10% v/v human plasma. Serial 1:2 drug dilutions were prepared in triplicate in microtitre plates. Culture medium supplemented with 10% v/v human plasma and type A Rhesus positive human erythrocytes infected with P. falciparum strains was added to yield a haematocrit of 3% and a parasitaemia of 0.25–0.55%. The plates were incubated at 37°C in a modular incubator flushed with a mixture of 5% oxygen, 3% carbon dioxide, and 92% nitrogen for 48 h, and then [^3H]hypoxanthine was added to give a final concentration of 12.5–16 μCi·ml^−1. After incubation for additional 24 h, particulate matter was harvested on fibreglass strips and hypoxanthine incorporation determined by scintillation spectrophotometry. […] Delayed death experiments were performed by this standard method but extending the incubation time with the drug up to 96 h.

[3] = tested on: Plasmodium falciparum FCR3 (CQ,AT); test: [3H]hypoxanthine incorporation antimalarial assay, strain FCR3; type: cell-based; settings: FCR3, 72 h, read-out: IC50 FCR3 (CQ,AT)
Method: as §4, §5

[4] = tested on: Plasmodium falciparum Dd2(AZ^R); test: [3H]hypoxanthine incorporation antimalarial assay, azithromycin-resistant mutant Dd2(AZ^R); type: cell-based
Method: as §4, §5

[5] = tested on: Plasmodium falciparum K1 (CQ,PY); test: [3H]hypoxanthine incorporation antimalarial assay, strain K1; type: cell-based
Method: as §4, §5

[6] = Pharmacokinetics in P. falciparum infected and uninfected humanized mice; settings: for Cmax / Tmax: NODscidβ2m^−/−, mouse, whole blood, po, 12.5 mg/kg; for Cmax: C max, blood; for Cmax / Tmax / DNAUC(0–24): oral 12.5 mg·kg^−1, mean (SD); for Tmax: t max; for I/U (DNAUC infected versus uninfected): humanized mice, oral 12.5 mg·kg^−1
Method: For pharmacokinetic (PK) studies in mice, animals were dosed either by intravenous (i.v.) or oral (p.o.) route.
as §1, §2, §3

[7] = tested on: Plasmodium falciparum 7G8 (CQ, PY); test: [3H]hypoxanthine incorporation antimalarial assay, strain 7G8; type: cell-based
Method: as §4, §5

[8] = tested on: Plasmodium falciparum Dd2 (CQ,Q,PY,S); test: microbe, parasite or virus in culture; type: cell-based; settings: for Delayed death phenotype: Dd2 and Dd2(AZ^R), 48 versus 96 h; for IC50: Plasmodium falciparum
Method: as §4, §5

[9] = tested on: Plasmodium falciparum V1/S (CQ,PY); test: microbe, parasite or virus in culture; type: cell-based; settings: 72 h, read-out: IC50 V1/S (CQ,PY)
Method: as §4, §5

[10] = whole blood, po, 12.5 mg/kg, F, CD‐1 mice, 12.5 mg·kg^−1 i.v. and p.o.
[11] = DD2, 48 h, read-out: IC50 Dd2(AZ^R) 48 h
[12] = DD2, 96 h, read-out: IC50 Dd2(AZ^R) 96 h
[13] = DD2, 48 h, read-out: IC50 Dd2 48 h
[14] = DD2, 72 h, read-out: IC50 Dd2 (CQ,Q,PY,S)
[15] = DD2, 96 h, read-out: IC50 Dd2 96 h
[16] = whole blood, intravenous, 12.5 mg/kg
[17] = whole blood, po, 12.5 mg/kg, fasted CD-1 mice
[18] = whole blood, po, 12.5 mg/kg, fed CD-1 mice
[19] = K1, 72 h, read-out: IC50 K1 (CQ,PY)
[20] = 7G8, 72 h, read-out: IC50 7G8 (CQ, PY)

CC[C@H]1OC(=O)[C@H](C)[C@@H](O[C@H]2C[C@@](C)(OC)[C@@H](O)[C@H](C)O2)[C@H](C)[C@@H](O[C@@H]2O[C@H](C)C[C@H](N(C)C)[C@H]2O)[C@](C)(O)C[C@@H](C)CN(C)[C@H](C)[C@@H](O)[C@]1(C)O [Azithromycin, reference compound]
MIC (M. catarrhalis ATCC23246): ≤ 0.125 µg/mL | B/P (ratio of AUC0−t in whole blood and plasma) ([1]; CD‐1 mice): 2.4 | DNAUCPO (AUC0−t divided by the dose) ([1]; CD‐1 mice): 267 ng·kg·h/mL/mg | half-life ([1]; in vivo, 12.5 mg/kg): 10.1 h | Vd ([1]; whole blood, 12.5 mg/kg): 29.2 L/kg | clearance ([1]; whole blood, 12.5 mg/kg): 40.2 mL/min/kg | bioavailability [1, 10]: 61% | IC50 [2]: 2720 nM | IC50 [3]: 2590 nM | IC50 [4, 11]: 3360 nM | IC50 [4, 12]: 1480 nM | IC50 ([5]; K1, 72 h of incubation, N = 3, read-out: IC50 K1 (CQ,PY)): 2720 nM | Cmax ([6]; infected (I) humanized mice): 344 ng/mL | Cmax ([6]; uninfected (U) humanized mice): 243 ng/mL | Tmax ([6]; infected (I) humanized mice): 1 h | Tmax ([6]; uninfected (U) humanized mice): 1.67 h | I/U (DNAUC infected versus uninfected) [6]: 1.1 | DNAUC(0–24) ([6]; infected (I) humanized mice): 161 (7) ng*h·ml^−1·mg^−1·kg^−1 | DNAUC(0–24) ([6]; uninfected (U) humanized mice): 146 (37) ng*h·ml^−1·mg^−1·kg^−1 | IC50 ([7]; 7G8, 72 h of incubation, N = 3, read-out: IC50 7G8 (CQ, PY)): 4590 nM | Delayed death phenotype [8]: Yes | IC50 [8, 13]: 3270 nM | IC50 [8, 14]: 1590 nM | IC50 [8, 15]: 81 nM | IC50 [9]: 15900 nM

CC[C@H]1OC(=O)[C@H](C)[C@@H](O[C@H]2C[C@@](C)(OC)[C@@H](O)[C@H](C)O2)[C@H](C)[C@@H](O[C@@H]2O[C@H](C)C[C@H](N(C)C)[C@H]2O)[C@](C)(O)C[C@@H](C)CN(CCCNc2ccnc3cc(Cl)ccc23)[C@H](C)[C@@H](O)[C@]1(C)O [Compound 1]
MIC (M. catarrhalis ATCC23246): 2 µg/mL (≈ 2.1 µM) | B/P (ratio of AUC0−t in whole blood and plasma) ([1]; CD‐1 mice): 14.0 | DNAUCPO (AUC0−t divided by the dose) ([1]; CD‐1 mice): 253 ng·kg·h/mL/mg | half-life [1, 16]: 28.2 h | Vd ([1]; whole blood, 12.5 mg/kg): 4.42 L/kg | clearance ([1]; whole blood, 12.5 mg/kg): 1.95 mL/min/kg | bioavailability ([1]; whole blood, oral, 12.5 mg·kg^−1, F, fasted CD-1 mice, ratio of AUC0-t after PO and IV): 11.3% | bioavailability ([1]; whole blood, oral, 12.5 mg·kg^−1, F, fed CD-1 mice, ratio of AUC0-t after PO and IV): 3.75% | AUC(0-t) [1, 17]: 9510 ng·h/mL | AUC(0-t) [1, 18]: 3160 ng·h/mL | Cmax [1, 17]: 582 ng/mL | Cmax [1, 18]: 162 ng/mL | bioavailability [1, 10]: 4% | increase in oral F in fasted versus fed mice ([1]; fed versus fasted mice): threefold increase | IC50 [2]: 13 nM | IC50 [3]: 22 nM | IC50 [4, 11]: 21 nM | IC50 [4, 12]: 11 nM | IC50 [5, 19]: 23 nM | Cmax ([6]; infected (I) humanized mice): 775 ng/mL | Cmax ([6]; uninfected (U) humanized mice): 173 ng/mL | Tmax ([6]; infected (I) humanized mice): 1 h | Tmax ([6]; uninfected (U) humanized mice): 0.75 h | I/U (DNAUC infected versus uninfected) [6]: 2.1 | DNAUC(0–24) ([6]; infected (I) humanized mice): 362 (68) ng*h·ml^−1·mg^−1·kg^−1 | DNAUC(0–24) ([6]; uninfected (U) humanized mice): 169 (33) ng*h·ml^−1·mg^−1·kg^−1 | IC50 [7, 20]: 37 nM | Delayed death phenotype [8]: No | IC50 [8, 13]: 17 nM | IC50 [8, 14]: 25 nM | IC50 [8, 15]: 12 nM | IC50 [9]: 28 nM

CC[C@H]1OC(=O)[C@H](C)[C@@H](O)[C@H](C)[C@@H](O[C@@H]2O[C@H](C)C[C@H](N(C)C)[C@H]2OCCCNc2ccnc3ccccc23)[C@](C)(O)C[C@@H](C)CN[C@H](C)[C@@H](O)[C@]1(C)O [Compound 3]
MIC (M. catarrhalis ATCC23246): > 64 µg/mL | B/P (ratio of AUC0−t in whole blood and plasma) ([1]; CD‐1 mice): 3.7 | DNAUCPO (AUC0−t divided by the dose) ([1]; CD‐1 mice): 362 ng·kg·h/mL/mg | half-life [1, 16]: 15.6 h | Vd ([1]; whole blood, 12.5 mg/kg): 13.4 L/kg | clearance ([1]; whole blood, 12.5 mg/kg): 10.1 mL/min/kg | bioavailability [1, 10]: 26% | IC50 [2]: 21 nM | IC50 [3]: 22 nM | IC50 [4, 11]: 27 nM | IC50 [4, 12]: 23 nM | IC50 [5, 19]: 24 nM | Cmax ([6]; infected (I) humanized mice): 348 ng/mL | Cmax ([6]; uninfected (U) humanized mice): 83.8 ng/mL | Tmax ([6]; infected (I) humanized mice): 1.67 h | Tmax ([6]; uninfected (U) humanized mice): 2.2 h | I/U (DNAUC infected versus uninfected) [6]: 3.9 | DNAUC(0–24) ([6]; infected (I) humanized mice): 354 (129) ng*h·ml^−1·mg^−1·kg^−1 | DNAUC(0–24) ([6]; uninfected (U) humanized mice): 91 (85) ng*h·ml^−1·mg^−1·kg^−1 | IC50 [7, 20]: 17 nM | Delayed death phenotype [8]: No | IC50 [8, 13]: 24 nM | IC50 [8, 14]: 30 nM | IC50 [8, 15]: 22 nM | IC50 [9]: 30 nM

From article PMC9328652, “A novel class of fast‐acting antimalarial agents: Substituted 15‐membered azalides” (British Journal of Pharmacology, 2020)
